According to publication PMC3743849, “A Yeast-Based Chemical Screen Identifies a PDE Inhibitor That Elevates Steroidogenesis in Mouse Leydig Cells via PDE8 and PDE4 Inhibition” (PLoS ONE, 2013):

Key:
[1] = molecular target: T1, rat PDE2A (Rattus norvegicus, UniProt Q01062); assay: In vitro PDE assay (Ba(OH)2 precipitation), PDE2A; format: biochemical; conditions: 1 µM cGMP substrate; mean ± SD of three independent experiments
T1 construct: purchased BPS Bioscience Inc
T1 sequence (Q01062 1-928): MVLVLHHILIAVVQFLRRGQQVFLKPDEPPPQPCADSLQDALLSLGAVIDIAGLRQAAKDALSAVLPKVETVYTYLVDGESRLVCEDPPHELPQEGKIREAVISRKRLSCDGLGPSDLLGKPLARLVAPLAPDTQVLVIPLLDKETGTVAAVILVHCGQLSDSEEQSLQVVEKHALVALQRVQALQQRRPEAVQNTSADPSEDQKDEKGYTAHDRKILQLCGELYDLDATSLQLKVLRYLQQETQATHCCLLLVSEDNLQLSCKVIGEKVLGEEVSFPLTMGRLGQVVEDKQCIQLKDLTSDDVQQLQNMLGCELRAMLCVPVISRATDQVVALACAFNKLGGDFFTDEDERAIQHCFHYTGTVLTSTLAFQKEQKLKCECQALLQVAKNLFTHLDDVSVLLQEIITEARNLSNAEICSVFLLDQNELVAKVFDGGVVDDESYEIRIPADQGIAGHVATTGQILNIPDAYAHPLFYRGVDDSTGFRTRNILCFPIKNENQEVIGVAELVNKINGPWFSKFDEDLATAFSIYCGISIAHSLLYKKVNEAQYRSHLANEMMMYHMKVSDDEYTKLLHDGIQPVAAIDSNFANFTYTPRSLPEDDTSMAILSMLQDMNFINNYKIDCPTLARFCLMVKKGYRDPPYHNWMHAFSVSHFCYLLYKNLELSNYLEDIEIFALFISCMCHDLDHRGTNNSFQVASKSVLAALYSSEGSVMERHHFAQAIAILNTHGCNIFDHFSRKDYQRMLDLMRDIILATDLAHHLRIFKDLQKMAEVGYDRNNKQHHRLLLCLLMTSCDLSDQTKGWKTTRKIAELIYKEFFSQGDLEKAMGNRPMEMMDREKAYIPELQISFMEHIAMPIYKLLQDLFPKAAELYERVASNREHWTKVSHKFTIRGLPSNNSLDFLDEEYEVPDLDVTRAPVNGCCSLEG
Experimental: (§1) In vitro PDE assays were performed as previously described, using the Ba(OH)2 precipitation assay, with recombinant human PDE1C, PDE3B, PDE5A1, PDE8A, PDE9A2, PDE10A1, PDE11A4 (BPS Bioscience Inc.), rat PDE2A (BPS Bioscience Inc.), human PDE7A (BIOMOL International), and human PDE4A10 enzymes (gift from Dr. Hengming Ke). Substrate concentrations were 120 nM cGMP (PDE1C), 1 µM cGMP (PDE2A), 30 nM cGMP (PDE3B), 50 nM cAMP (PDE4A), 520 nM cGMP (PDE5A), 10 nM cAMP (PDE7A), 10 nM cAMP (PDE8A), 70 nM cGMP (PDE9A), 40 nM cAMP (PDE10A), and 120 nM cGMP (PDE11A). Reactions were performed in 50 mM Tris·HCl (pH 8.5), 10 mM MgCl2 (for all enzymes except PDE8) or 4 mM MnCl2 (for PDE8A), and 5 mM dithiothreitol, and proceeded for 30 min for PDE8A, 6 min for PDE10A and 15 min for other PDEs, so that reactions were linear with time. Reactions were stopped with 200 µL 0.2 M ZnSO4, after which 5′-AMP was precipitated with 200 µL 0.25 N Ba(OH)2 by centrifugation for 15 min at 14000 rpm. The remaining radioactivity in the supernatant was measured in 4 mL of scintillation fluid. The amount of hydrolysis was generally limited to 30 percent conversion and IC50 values were calculated as the means of three independent experiments. Substrate concentrations were ≤0.1*Km for each enzyme, thus IC50 values approximate the Ki values.

[2] = test system: MA-10 Leydig tumor cells; assay: Progesterone release from MA-10 Leydig tumor cells; format: cell-based, mouse; conditions: 20 µM compound; 2 h
Experimental: MA-10 Leydig tumor cells were maintained in RPMI medium supplemented with 10% horse serum and seeded in 24 well plates to achieve 60–80% confluency after 2–3 days. Cells were washed with serum free medium twice and incubated in a 5% CO2 incubator at 37°C for 2 h. Following incubation, cells were treated with BC8-15, BC8-15A, or BC8-15C by replacing the media with 300 µL RPMI medium containing test compounds or vehicle. Media were collected after incubation for 2 h at 37°C. Progesterone levels in the media were measured using a progesterone ELISA kit (Neogen, Lexington, KY). Protein levels were determined by lysing cells in lysis buffer (50 mM Tris HCl (pH 7.5), 150 mM NaCl, 1% Triton X-100, 2 mM PMSF (supplemented with a Complete Protease Inhibitor Tablet (Roche, Nutley, NJ)) and measuring the protein concentration using a BCA protein assay kit (Pierce, Rockford, IL).

[3] = molecular target: T2, recombinant human PDE3B (Homo sapiens, UniProt Q13370); assay: In vitro PDE assay (Ba(OH)2 precipitation), PDE3B; format: biochemical; conditions: 30 nM cGMP substrate; three independent experiments
T2 construct: purchased BPS Bioscience Inc
Experimental: as §1

[4] = molecular target: T3, recombinant human PDE9A2 (Homo sapiens, UniProt O76083); assay: In vitro PDE assay (Ba(OH)2 precipitation), PDE9A; format: biochemical; conditions: 70 nM cGMP substrate; three independent experiments
T3 construct: purchased BPS Bioscience Inc
Experimental: as §1

[5] = molecular target: T4, recombinant human PDE8A (Homo sapiens, UniProt O60658); assay: In vitro PDE assay (Ba(OH)2 precipitation), PDE8A; format: biochemical; conditions: for IC50: 10 nM cAMP substrate
T4 construct: purchased BPS Bioscience Inc
Experimental: as §1

[6] = molecular target: T5, human PDE4A10 (Homo sapiens, UniProt P27815); assay: In vitro PDE assay (Ba(OH)2 precipitation), PDE4A; format: biochemical; conditions: 50 nM cAMP substrate
T5 construct: gift from Dr. Hengming Ke

[7] = molecular target: T6, recombinant human PDE1C (Homo sapiens, UniProt Q14123); assay: In vitro PDE assay (Ba(OH)2 precipitation), PDE1C; format: biochemical; conditions: 120 nM cGMP substrate; mean ± SD of three independent experiments
T6 construct: purchased BPS Bioscience Inc
Experimental: as §1

[8] = molecular target: T7, recombinant human PDE5A1 (Homo sapiens, UniProt O76074); assay: In vitro PDE assay (Ba(OH)2 precipitation), PDE5A; format: biochemical; conditions: 520 nM cGMP substrate; mean ± SD of three independent experiments
T7 construct: purchased BPS Bioscience Inc
Experimental: as §1

[9] = molecular target: T8, recombinant human PDE11A4 (Homo sapiens, UniProt Q9HCR9); assay: In vitro PDE assay (Ba(OH)2 precipitation), PDE11A; format: biochemical; conditions: 120 nM cGMP substrate; mean ± SD of three independent experiments
T8 construct: purchased BPS Bioscience Inc
Experimental: as §1

[10] = molecular target: T9, recombinant human PDE10A1 (Homo sapiens, UniProt Q9Y233); assay: In vitro PDE assay (Ba(OH)2 precipitation), PDE10A; format: biochemical; conditions: 40 nM cAMP substrate; mean ± SD of three independent experiments
T9 construct: purchased BPS Bioscience Inc
Experimental: as §1

[11] = molecular target: T10, human PDE7A (Homo sapiens, UniProt Q13946); assay: In vitro PDE assay (Ba(OH)2 precipitation), PDE7A; format: biochemical; conditions: for IC50: 10 nM cAMP substrate, mean ± SD of three independent experiments
T10 construct: purchased BIOMOL International

[12] = test system: primary Leydig cells from wild type mice; assay: Testosterone production from primary Leydig cells, wild type mice; format: cell-based, mouse; conditions: 3 h, rolipram 20 µM, BC8-15 10 µM and 40 µM
Experimental: (§2) Leydig cells were isolated from testes of wild type and PDE8A^−/−/B^−/− knock-out adult mice as previously described. Digested tissue from decapsulated mouse testis was enriched for interstitial cells by filtration as previously described. Collected cells were resuspended in DMEM/F-12 medium supplemented with 1 mg/mL BSA and 150 µL aliquots were dispensed into 48-well plates. After permitting cells to recover at 37°C for 3 h, 30 µL of media with test compounds or vehicle was added to replicate wells. Media were collected after incubation for 3 h and stored at −20°C. Testosterone released into the media was measured by a testosterone ELISA kit (Neogen, Lexington, KY).

[13] = test system: primary Leydig cells from PDE8A−/−/B−/− knock-out mice; assay: Testosterone production from primary Leydig cells, PDE8A-/-/B-/- knock-out mice; format: cell-based, mouse; conditions: 3 h, rolipram 20 µM, BC8-15 10 µM and 40 µM
Experimental: as §2

[14] = test system: PDE8 enzymes; parameters: method as in PMID 9671792, PMID 9784418; conditions: ref [6], [11]; cited from earlier work
[15] = test system: T11, murine PDE8A1; assay: Yeast-based 5FOA growth HTS with PDE8A-expressing S. pombe strain CHP1204; format: cell-based; conditions: Known Bioactives Collection screen
T11 construct: expressed in transfected cells; host or cells: Schizosaccharomyces pombe strain CHP1204 (PDE8A1 integrated at the cgs2 locus)
Experimental: Cyclic nucleotide-dependent growth in 5FOA medium was monitored in 50 µL cultures in 384-well microtiter plates (untreated, flat clear bottom). Cells were inoculated at an initial cell density of 0.5–2×10^5 cells/mL. Previously described optimized pre-growth conditions for each strain were used to repress the fbp1-ura4^+ reporter prior to inoculation into 5FOA medium, as cells that are already expressing the Ura4 enzyme would be 5FOA-sensitive even upon exposure to a PDE inhibitor [18]. Following a 48-h incubation at 30°C, plates were vortexed and optical densities (600 nm) were measured. The experiments with the PDE8A-expressing strain (CHP1204) were performed with 0.5 mM cAMP in the pre-growth medium and 40 µM cAMP in the 5FOA medium. […]
The suitability and quality of the assay conditions for high throughput screening was evaluated by a Z factor test as previously described, [23], using DMSO (0.2%) as a negative control, and either 5 mM cAMP, 10 µM BC69, or 20 µM BC69 as positive controls. […] After 48 h growth at 30°C, the optical density (OD600) of each well was measured using a plate reader. Composite Z scores were calculated for each compound by scaling the vector [Zscore_A, Zscore_B] by the cosine correlation with the diagonal (i.e. identical Z-scores in both replicates).

[16] = mean ± SD of three independent experiments

T8 sequence (Q9HCR9 whole entry): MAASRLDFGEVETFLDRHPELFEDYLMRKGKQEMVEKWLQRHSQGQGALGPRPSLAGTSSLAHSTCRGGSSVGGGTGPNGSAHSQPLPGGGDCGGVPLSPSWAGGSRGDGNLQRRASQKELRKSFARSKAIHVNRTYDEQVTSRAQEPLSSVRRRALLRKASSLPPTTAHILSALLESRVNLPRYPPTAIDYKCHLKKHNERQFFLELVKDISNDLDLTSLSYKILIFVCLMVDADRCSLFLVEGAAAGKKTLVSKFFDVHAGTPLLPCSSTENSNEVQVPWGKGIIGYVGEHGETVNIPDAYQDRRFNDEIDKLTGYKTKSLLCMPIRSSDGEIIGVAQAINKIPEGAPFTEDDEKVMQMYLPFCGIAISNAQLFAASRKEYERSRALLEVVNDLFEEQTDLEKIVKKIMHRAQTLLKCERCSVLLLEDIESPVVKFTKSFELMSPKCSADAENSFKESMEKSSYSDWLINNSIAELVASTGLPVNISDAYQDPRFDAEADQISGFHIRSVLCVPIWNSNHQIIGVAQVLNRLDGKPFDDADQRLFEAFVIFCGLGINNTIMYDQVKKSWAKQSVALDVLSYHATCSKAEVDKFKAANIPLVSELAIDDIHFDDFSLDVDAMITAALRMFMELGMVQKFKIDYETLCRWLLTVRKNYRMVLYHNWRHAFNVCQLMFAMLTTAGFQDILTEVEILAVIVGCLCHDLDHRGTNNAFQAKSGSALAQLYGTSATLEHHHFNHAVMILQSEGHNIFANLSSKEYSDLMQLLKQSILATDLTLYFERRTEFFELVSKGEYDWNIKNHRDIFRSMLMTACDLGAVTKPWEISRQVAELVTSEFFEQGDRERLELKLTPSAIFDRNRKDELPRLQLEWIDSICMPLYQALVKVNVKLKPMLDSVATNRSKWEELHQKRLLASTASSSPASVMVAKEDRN
T9 sequence (Q9Y233 1-779 isoform Q9Y233-1): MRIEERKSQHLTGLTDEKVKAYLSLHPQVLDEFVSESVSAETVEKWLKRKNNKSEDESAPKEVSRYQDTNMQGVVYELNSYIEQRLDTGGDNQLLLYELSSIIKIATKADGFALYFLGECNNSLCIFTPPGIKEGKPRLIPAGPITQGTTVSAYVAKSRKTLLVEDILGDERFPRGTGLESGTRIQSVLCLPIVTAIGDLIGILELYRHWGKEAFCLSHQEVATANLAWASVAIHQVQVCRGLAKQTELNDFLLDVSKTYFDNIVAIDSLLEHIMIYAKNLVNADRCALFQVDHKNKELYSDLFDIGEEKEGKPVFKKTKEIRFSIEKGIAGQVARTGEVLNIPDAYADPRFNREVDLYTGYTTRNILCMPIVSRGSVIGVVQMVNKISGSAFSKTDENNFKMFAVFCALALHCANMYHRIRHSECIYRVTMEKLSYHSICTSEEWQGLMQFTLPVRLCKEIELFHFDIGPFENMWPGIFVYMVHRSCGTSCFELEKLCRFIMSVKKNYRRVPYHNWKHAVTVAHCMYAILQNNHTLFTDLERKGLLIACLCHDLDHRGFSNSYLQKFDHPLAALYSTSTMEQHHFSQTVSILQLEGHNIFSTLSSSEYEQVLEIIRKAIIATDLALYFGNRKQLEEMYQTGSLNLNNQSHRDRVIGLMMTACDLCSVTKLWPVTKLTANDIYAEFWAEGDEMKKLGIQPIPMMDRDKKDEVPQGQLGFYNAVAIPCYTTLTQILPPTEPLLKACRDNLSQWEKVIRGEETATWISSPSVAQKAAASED
T3 sequence (O76083 1-533 isoform O76083-2): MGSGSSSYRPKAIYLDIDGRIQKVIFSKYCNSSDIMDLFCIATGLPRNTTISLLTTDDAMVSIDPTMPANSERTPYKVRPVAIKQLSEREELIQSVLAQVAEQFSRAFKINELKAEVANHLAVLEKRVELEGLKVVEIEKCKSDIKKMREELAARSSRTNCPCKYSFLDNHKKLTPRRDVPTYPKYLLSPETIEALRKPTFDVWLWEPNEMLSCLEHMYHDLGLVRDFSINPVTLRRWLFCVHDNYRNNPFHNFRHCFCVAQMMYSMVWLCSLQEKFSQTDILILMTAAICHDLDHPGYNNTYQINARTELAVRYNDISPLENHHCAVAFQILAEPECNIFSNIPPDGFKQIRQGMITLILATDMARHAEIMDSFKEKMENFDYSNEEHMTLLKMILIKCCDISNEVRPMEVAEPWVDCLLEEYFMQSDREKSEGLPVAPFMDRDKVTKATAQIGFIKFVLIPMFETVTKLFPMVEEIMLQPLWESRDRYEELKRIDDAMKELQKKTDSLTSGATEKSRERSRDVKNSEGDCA
T2 sequence (Q13370 whole entry): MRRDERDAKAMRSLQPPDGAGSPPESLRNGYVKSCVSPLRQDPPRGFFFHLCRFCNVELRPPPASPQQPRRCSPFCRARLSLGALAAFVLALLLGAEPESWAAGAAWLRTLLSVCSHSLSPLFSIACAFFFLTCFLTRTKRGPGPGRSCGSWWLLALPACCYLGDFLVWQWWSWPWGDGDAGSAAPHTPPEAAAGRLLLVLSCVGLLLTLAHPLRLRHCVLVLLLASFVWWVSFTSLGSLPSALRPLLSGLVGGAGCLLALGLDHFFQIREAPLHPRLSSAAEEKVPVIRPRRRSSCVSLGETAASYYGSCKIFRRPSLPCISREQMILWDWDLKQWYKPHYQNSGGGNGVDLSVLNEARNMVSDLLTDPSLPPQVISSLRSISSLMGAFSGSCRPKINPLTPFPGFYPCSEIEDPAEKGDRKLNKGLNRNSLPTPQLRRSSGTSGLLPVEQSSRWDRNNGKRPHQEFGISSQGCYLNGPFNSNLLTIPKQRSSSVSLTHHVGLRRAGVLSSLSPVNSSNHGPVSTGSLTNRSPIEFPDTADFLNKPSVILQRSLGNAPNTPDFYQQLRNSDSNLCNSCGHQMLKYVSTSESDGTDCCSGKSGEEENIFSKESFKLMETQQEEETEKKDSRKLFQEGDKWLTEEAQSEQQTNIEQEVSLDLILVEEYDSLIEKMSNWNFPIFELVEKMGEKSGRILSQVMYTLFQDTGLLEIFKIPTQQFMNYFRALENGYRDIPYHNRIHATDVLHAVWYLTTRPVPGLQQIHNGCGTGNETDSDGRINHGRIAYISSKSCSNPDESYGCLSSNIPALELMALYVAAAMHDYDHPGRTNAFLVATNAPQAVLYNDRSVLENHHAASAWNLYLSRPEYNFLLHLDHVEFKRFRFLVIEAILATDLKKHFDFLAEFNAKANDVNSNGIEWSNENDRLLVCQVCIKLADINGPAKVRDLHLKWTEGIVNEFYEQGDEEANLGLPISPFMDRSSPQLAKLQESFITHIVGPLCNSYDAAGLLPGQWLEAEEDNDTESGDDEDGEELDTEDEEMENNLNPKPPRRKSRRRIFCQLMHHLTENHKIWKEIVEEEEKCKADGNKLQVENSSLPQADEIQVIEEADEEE
T10 sequence (Q13946 whole entry): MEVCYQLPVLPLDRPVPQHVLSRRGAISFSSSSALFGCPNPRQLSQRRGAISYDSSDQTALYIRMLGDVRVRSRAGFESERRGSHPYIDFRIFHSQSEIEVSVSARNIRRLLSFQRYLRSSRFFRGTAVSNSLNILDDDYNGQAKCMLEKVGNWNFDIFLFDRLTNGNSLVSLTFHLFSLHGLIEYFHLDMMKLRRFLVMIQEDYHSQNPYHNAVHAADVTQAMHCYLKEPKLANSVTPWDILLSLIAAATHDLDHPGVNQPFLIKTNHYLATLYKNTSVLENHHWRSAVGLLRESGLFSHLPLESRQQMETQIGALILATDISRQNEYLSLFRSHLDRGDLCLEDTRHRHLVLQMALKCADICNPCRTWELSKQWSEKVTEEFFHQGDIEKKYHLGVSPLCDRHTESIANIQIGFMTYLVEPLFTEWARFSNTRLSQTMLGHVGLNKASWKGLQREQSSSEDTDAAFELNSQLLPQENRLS
T6 sequence (Q14123 whole entry): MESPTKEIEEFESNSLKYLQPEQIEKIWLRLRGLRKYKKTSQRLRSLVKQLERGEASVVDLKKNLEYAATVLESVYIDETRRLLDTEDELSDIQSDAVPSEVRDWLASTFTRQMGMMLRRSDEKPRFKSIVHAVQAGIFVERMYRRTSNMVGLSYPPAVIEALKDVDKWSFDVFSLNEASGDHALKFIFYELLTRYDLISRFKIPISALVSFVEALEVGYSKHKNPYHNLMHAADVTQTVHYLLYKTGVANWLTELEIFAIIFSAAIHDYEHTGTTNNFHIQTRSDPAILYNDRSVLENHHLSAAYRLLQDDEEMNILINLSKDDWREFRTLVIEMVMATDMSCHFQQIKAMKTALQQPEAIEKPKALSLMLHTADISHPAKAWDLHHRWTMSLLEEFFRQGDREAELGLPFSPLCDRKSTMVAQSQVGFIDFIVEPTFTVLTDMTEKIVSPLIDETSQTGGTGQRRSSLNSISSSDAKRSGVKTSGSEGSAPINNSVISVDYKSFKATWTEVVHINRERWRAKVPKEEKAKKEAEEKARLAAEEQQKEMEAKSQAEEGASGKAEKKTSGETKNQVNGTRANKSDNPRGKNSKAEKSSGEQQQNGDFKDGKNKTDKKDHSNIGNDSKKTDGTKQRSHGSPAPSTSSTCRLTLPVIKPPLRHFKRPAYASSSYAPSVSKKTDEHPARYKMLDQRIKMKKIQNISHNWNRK

| Compound | IC50 [1] [µM] | increase in progesterone release compared to untreated cells [2] | IC50 [3] [µM] | IC50 [4] [µM] | IC50 [7] [µM] | IC50 [8] [µM] | IC50 [9] [µM] | IC50 [10] [µM] | IC50 [11] [µM] | also measured |
| --- | --- | --- | --- | --- | --- | --- | --- | --- | --- | --- |
| Cc1nnc2c3ccccc3nc(Nc3cccc(C(=O)O)c3)n12 [BC8-15A] | 5.2 ± 2 | five-fold | > 20 | > 20 | > 20 | > 20 | 1 | 2.3 ± 0.7 | 8.88 ± 3.9 | IC50 [5, 16]: 1.59 ± 0.3 µM; IC50 [6, 16]: 1.59 ± 0.1 µM |
| CCc1nnc2c3ccccc3nc(Nc3cccc(C(=O)O)c3)n12 [BC8-15] | 15.7 ± 2.7 | > 10 fold | > 20 | > 20 | 8.4 ± 3 | 16.7 ± 2.3 | 1.2 ± 0.7 | 1.6 ± 0.2 | 6.46 | testosterone release [12]: dose-dependent elevation; IC50 [5]: 0.28 µM; IC50 [6]: 0.22 µM; fold less activity against PDE7A (vs PDE8A/PDE4A) ([11]; ratio of IC50 values): 23 fold; increase in testosterone production [13]: two-fold increase |
| CCc1nnc2c3ccccc3nc(Nc3cccc(C)c3)n12 [BC8-15C] | > 20 | little or no effect | > 20 | > 20 | > 20 | > 20 | 0.08 ± 0.05 | 1.5 ± 1.2 | 14.2 ± 6.4 | IC50 [5, 16]: 59.3 ± 14.2 µM |
| COc1ccc(C2CNC(=O)C2)cc1OC1CCCC1 (stereo not shown) [rolipram, reference compound] | – | little or no effect | – | – | – | – | – | – | – | testosterone release [12]: no response; increase in testosterone production [13]: two-fold increase |
| CC(C)Cn1c(=O)n(C)c(=O)c2[nH]cnc21 [3-isobutyl-1-methylxanthine (IBMX), 3-isobutyl-1-methylxanthine] | – | – | – | – | – | – | – | – | – | sensitivity of PDE8 enzymes to inhibitor [14]: insensitive |
| OCCN(CCO)c1nc(N2CCCCC2)c2nc(N(CCO)CCO)nc(N3CCCCC3)c2n1 [dipyridamole] | – | – | – | – | – | – | – | – | – | activity in PDE8A yeast growth screen [15]: no activity; sensitivity of PDE8 enzymes to inhibitor [14]: only weakly inhibited |
| C[C@]12CC[C@H](O)C[C@@H]1CC[C@@H]1[C@@H]2CC[C@]2(C)C(=O)CC[C@@H]12 [epiandrosterone, reference compound] | – | – | – | – | – | – | – | – | – | composite Z score, 5FOA-resistant growth of PDE8A1-expressing strain ([15]; 40 µM cAMP in 5FOA medium, 48 h): 12.9; inhibition at 32 µM ([5]; 32 µM compound, data not shown): 17% |
